# Data reported in ChEMBL document CHEMBL4020731, “Dimeric isoxazolyl-1,4-dihydropyridines have enhanced binding at the multi-drug resistance transporter” (Bioorg Med Chem, 2017).
# Key:
# [1] = target: T1, ATP-dependent translocase ABCB1 (Homo sapiens, UniProt P08183); assay: Inhibition of MDR-1 in human Caco-2 cells after 30 mins by calcein-AM dye based fluorescence assay; type: cell-based
# [2] = target: Metabotropic glutamate receptor 5 (Rattus norvegicus) (UniProt P31424); assay: Displacement of [3H]MPEP from rat brain mGluR5 expressed in CHO cells by scintillation counting method; type: cell-based
# Chain of Metabotropic glutamate receptor 5 (Rattus norvegicus) (P31424 21-1203 limits assumed): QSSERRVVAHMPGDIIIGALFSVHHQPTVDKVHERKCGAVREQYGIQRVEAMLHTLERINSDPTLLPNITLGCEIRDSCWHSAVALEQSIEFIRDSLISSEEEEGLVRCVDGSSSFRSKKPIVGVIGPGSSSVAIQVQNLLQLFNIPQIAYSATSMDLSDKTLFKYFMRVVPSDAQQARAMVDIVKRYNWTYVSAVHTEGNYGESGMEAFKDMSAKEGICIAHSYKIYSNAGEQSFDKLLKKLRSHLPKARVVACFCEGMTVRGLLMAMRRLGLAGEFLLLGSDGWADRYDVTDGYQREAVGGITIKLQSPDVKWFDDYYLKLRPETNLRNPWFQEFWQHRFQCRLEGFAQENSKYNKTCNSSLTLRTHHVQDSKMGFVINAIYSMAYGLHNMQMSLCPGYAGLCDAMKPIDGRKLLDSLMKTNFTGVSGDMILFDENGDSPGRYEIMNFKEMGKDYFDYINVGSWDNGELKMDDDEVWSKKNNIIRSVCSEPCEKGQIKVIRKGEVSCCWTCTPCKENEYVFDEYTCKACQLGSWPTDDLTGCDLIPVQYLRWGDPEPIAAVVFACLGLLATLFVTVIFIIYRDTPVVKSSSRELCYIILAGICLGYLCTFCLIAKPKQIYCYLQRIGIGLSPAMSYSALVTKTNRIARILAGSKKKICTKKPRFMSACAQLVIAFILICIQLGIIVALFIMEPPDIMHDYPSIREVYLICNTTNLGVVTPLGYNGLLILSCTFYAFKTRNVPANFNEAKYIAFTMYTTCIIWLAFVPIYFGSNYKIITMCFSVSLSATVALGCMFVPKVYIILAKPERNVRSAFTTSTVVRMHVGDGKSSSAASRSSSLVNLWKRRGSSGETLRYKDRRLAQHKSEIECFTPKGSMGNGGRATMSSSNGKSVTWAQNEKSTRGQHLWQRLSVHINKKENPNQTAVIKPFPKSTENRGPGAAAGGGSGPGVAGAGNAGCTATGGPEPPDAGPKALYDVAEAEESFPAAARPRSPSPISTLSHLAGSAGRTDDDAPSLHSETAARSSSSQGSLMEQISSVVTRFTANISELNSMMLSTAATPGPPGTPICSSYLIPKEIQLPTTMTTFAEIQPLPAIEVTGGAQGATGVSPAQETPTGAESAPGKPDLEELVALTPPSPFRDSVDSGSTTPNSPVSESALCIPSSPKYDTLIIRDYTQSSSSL
# [3] = target: Voltage-gated L-type calcium channel (Homo sapiens, UniProt Q13936+Q13698+Q01668+O60840); assay: Displacement of [3H]PN-200110 from voltage-dependent L-type calcium channel (unknown origin) by scintillation counting method
# [4] = target: MDR-1 (P-glycoprotein, ABCB1) (Homo sapiens, UniProt P08183); assay: (§1) Inhibition of MDR-1 in human Caco-2 cells at 10 uM after 30 mins by calcein-AM dye based fluorescence assay relative to cyclosporin; type: cell-based; conditions: Caco-2 cells, probe calcein-AM
# Chain of MDR-1 (P-glycoprotein, ABCB1) (P08183 whole entry): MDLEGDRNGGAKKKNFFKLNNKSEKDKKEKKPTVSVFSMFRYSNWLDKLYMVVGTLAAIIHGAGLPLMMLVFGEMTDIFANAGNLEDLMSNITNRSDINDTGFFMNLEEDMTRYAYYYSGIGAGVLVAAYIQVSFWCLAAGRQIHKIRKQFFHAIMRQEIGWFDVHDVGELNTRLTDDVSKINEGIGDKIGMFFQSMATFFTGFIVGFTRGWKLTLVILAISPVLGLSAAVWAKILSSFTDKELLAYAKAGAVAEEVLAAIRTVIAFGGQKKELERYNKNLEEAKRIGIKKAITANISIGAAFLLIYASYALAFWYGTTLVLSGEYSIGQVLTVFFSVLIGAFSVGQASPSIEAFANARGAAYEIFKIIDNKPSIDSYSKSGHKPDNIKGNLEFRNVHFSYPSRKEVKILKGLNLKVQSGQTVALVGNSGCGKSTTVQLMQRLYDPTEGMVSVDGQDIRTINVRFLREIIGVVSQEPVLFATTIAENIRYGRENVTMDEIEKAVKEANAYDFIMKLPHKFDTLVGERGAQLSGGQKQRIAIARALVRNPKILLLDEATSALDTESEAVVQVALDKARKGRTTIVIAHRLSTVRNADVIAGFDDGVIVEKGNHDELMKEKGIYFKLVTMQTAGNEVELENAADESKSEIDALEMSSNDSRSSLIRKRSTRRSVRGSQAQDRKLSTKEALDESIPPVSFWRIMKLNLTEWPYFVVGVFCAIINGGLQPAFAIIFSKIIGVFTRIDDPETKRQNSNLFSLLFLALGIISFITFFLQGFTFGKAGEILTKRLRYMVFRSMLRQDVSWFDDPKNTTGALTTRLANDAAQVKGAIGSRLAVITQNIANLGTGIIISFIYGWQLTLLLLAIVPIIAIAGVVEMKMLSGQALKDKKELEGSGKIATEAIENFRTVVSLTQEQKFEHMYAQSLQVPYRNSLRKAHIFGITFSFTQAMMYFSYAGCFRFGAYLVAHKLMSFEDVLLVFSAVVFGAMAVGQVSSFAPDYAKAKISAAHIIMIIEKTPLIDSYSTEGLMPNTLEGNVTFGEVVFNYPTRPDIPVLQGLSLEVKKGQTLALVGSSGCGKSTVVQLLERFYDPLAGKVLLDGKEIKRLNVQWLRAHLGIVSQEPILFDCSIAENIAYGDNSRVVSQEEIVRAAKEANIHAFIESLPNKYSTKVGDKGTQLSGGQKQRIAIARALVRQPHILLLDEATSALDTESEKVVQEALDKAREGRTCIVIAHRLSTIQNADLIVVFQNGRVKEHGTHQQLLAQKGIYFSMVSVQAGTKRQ
# [5] = target: T1, ATP-dependent translocase ABCB1; assay: as §1; type: cell-based; conditions: 0.5 h, 10 µM
# T1 sequence (P08183 whole entry): as above
SMILES,IC50 [1] [nM],Ki [2] [nM],IC50 [3] [nM],"inhibition at 0.5 h, 10 µM [4] [%]",inhibition (INH) [5] [%],pIC50 [3]
CCOC(=O)C1=C(C)NC(C)=C(C(=O)OCc2cn(CCOCCOCCOCCn3cc(COC(=O)C4=C(C)NC(C)=C(C(=O)OCC)C4c4c(-c5ccc(Br)cc5)noc4C)nn3)nn2)C1c1c(-c2ccc(Br)cc2)noc1C (stereo not given),3230,546,516,11.6,,
CCOC(=O)C1=C(C)NC(C)=C(C(=O)OCc2cn(CCOCCOCCOCCOCCOCCn3cc(COC(=O)C4=C(C)NC(C)=C(C(=O)OCC)C4c4c(-c5cccc(Br)c5)noc4C)nn3)nn2)C1c1c(-c2cccc(Br)c2)noc1C (stereo not given),1300,8640,3766,,150.8,
CCOC(=O)C1=C(C)NC(C)=C(C(=O)OCC)C1c1c(-c2ccc(Br)cc2)noc1C,3100,> 10000,36,58.4,,7.44
CCOC(=O)C1=C(C)NC(C)=C(C(=O)OCc2cn(CCOCCOCCn3cc(COC(=O)C4=C(C)NC(C)=C(C(=O)OCC)C4c4c(-c5ccc(Br)cc5)noc4C)nn3)nn2)C1c1c(-c2ccc(Br)cc2)noc1C (stereo not given),1450,933,603,41.9,,
CCOC(=O)c1c(C)nc(C)c(C(=O)OCC)c1-c1c(-c2ccccc2)noc1C,> 10000,> 10000,> 10000,36.9,,
CCOC(=O)C1=C(C)NC(C)=C(C(=O)OCc2cn(CCc3ccccc3)nn2)C1c1c(-c2ccc(Br)cc2)noc1C (stereo not given),1640,1970,127,108,,
CCOC(=O)C1=C(C)NC(C)=C(C(=O)OCc2cn(CCOCCOCCOCCOCCOCCn3cc(COC(=O)C4=C(C)NC(C)=C(C(=O)OCC)C4c4c(-c5ccc(Br)cc5)noc4C)nn3)nn2)C1c1c(-c2ccc(Br)cc2)noc1C (stereo not given),1390,193,2706,,172.6,
CCOC(=O)C1=C(C)NC(C)=C(C(=O)OCC)C1c1c(-c2ccccc2Br)noc1C,> 10000,1520,909,-12,,
CCOC(=O)C1=C(C)NC(C)=C(C(=O)OCc2cn(CCOCCOCCOCCOCCOCCn3cc(COC(=O)C4=C(C)NC(C)=C(C(=O)OCC)C4c4c(-c5ccccc5Br)noc4C)nn3)nn2)C1c1c(-c2ccccc2Br)noc1C (stereo not given),2860,4860,> 10000,17.7,,
CCOC(=O)C1=C(C)NC(C)=C(C(=O)OCc2cn(CCOCCOCCOCCOCCOCCn3cc(COC(=O)C4=C(C)NC(C)=C(C(=O)OCC)C4c4c(-c5ccccc5)noc4C)nn3)nn2)C1c1c(-c2ccccc2)noc1C (stereo not given),> 10000,> 10000,> 10000,20.4,,
CCOC(=O)C1=C(C)NC(C)=C(C(=O)OCC)C1c1c(-c2cccc(Br)c2)noc1C,510,> 10000,208,102,,
